Conditions: Gas; for mass density: Gas pipette; for viscosity: Oscillating disk viscometry

COC [dimethyl ether]
Conditions | mass density [kg/m3] | viscosity [mPa·s]
298.15 K, 101 kPa | 1.91 | 0.00922
298.15 K, 296 kPa | 6.081 | 0.00918
298.15 K, 475 kPa | 10.06 | 0.0091
323.15 K, 101 kPa | 1.652 | 0.00997
323.15 K, 295 kPa | 5.561 | 0.00996
323.15 K, 490 kPa | 9.31 | 0.00993
323.15 K, 736 kPa | 14.71 | 0.00995
323.15 K, 976 kPa | 22.53 | 0.00994
348.15 K, 101 kPa | 1.332 | 0.01081
348.15 K, 305 kPa | 5.17 | 0.01081
348.15 K, 551 kPa | 9.705 | 0.01082
348.15 K, 1006 kPa | 19.03 | 0.01085
348.15 K, 1561 kPa | 35.81 | 0.01094
348.15 K, 1850 kPa | 44.66 | 0.01106
373.15 K, 101 kPa | 1.235 | 0.01161
373.15 K, 305 kPa | 4.748 | 0.0116
373.15 K, 500 kPa | 7.787 | 0.01162
373.15 K, 1028 kPa | 16.71 | 0.01168
373.15 K, 1940 kPa | 35.33 | 0.01191
373.15 K, 2505 kPa | 51.25 | 0.01219
373.15 K, 2875 kPa | 67.49 | 0.01247
373.15 K, 3049 kPa | 74.07 | 0.01261
398.15 K, 101 kPa | 0.948 | 0.01234
398.15 K, 300 kPa | 4.392 | 0.01237
398.15 K, 531 kPa | 7.678 | 0.01239
398.15 K, 992 kPa | 15.1 | 0.01244
398.15 K, 2085 kPa | 34.47 | 0.01274
398.15 K, 2985 kPa | 54.66 | 0.01317
398.15 K, 3965 kPa | 87.68 | 0.0141
398.15 K, 4480 kPa | 112.3 | 0.01504
398.15 K, 4620 kPa | 122.4 | 0.01543
423.15 K, 101 kPa | 1.009 | 0.01332
423.15 K, 310 kPa | 4.289 | 0.01333
423.15 K, 505 kPa | 6.812 | 0.01335
423.15 K, 985 kPa | 13.75 | 0.01342
423.15 K, 2022 kPa | 30.21 | 0.0137
423.15 K, 3004 kPa | 48.47 | 0.01413
423.15 K, 4015 kPa | 71.3 | 0.01477
423.15 K, 4495 kPa | 86.57 | 0.01521
423.15 K, 4912 kPa | 99.15 | 0.01568
